Oligonucleotides are written 5' to 3', each unit as a sugar letter and its base; * is a phosphorothioate linkage, no mark a phosphodiester; rarer units and linkages stand in square brackets, end groups in braces. Plain capitals give the bases only. e = 2'-O-(2-methoxyethyl) (MOE); [5mC] = 5-methylcytosine; d = 2'-deoxy (DNA)
Columns and labels:
[1] = tested on: LDLR mRNA; assay: LDLR mRNA levels in C57BL/6 mice; format: in vivo, mouse; details: 50 mg/kg/week, 6 weeks, compared to PBS control
Experimental: (§1) Four groups of five mice each were injected twice a week with 25 mg/kg (totaling 50 mg/kg/week) of ISIS 447114, ISIS 447118, ISIS 447143, or ISIS 447144 for 6 weeks. A control group of five mice was injected with phosphate buffered saline (PBS) twice a week for 6 weeks. Plasma samples were obtained before the start of treatment, at week 3 and at week 6. At the end of the treatment period, mice were fasted for 4 hours before being euthanized. Plasma and tissue samples were obtained for further analysis.
(§2) The effect of inhibition of TTC39B in mice on cholesterol homeostasis was studied. PCSK9 mRNA levels were measured using the murine primer probe set mPCSK9 (forward sequence ACCGACTTCAACAGCGTGC, designated herein as SEQ ID NO: 106; reverse sequence GGCTGTCACACTTGCTCGC, designated herein as SEQ ID NO: 107, probe sequence AGGATGGGACACGCTTCCACAGACAX, wherein X is a fluorophore, designated herein as SEQ ID NO: 108). LDLR mRNA levels were measured using the murine primer probe set mLDLR (forward sequence GACCGCAGCGAGTACACCA, designated herein as SEQ ID NO: 109; reverse sequence TCACCTCCGTGTCGAGAGC, designated herein as SEQ ID NO: 110, probe sequence […], designated herein as SEQ ID NO: 111). The results are presented as percentage inhibition compared to the PBS control.

[2] = Body and organ weights in C57BL/6 mice; format: in vivo, mouse
Experimental: as §1
Body weights of all the mice were measured weekly till the end of the treatment period. Organ weights were taken at the end of the treatment period when the mice were euthanized.

[3] = tested on: PCSK9 mRNA; assay: PCSK9 mRNA levels in C57BL/6 mice; format: in vivo, mouse; details: 50 mg/kg/week, 6 weeks, compared to PBS control
Experimental: as §1, §2

[4] = tested on: murine TTC39B mRNA; assay: Dose-dependent antisense inhibition of murine TTC39B in mouse primary hepatocytes (Example 2); format: cell-based; details: cytofectin, ~16 h
In short: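 Mouse primary hepatocytes (10,000/well) transfected via cytofectin with 25, 50, 100 or 200 nM antisense oligonucleotide for about 16 h. TTC39B mRNA quantified by real-time PCR, normalized to RIBOGREEN total RNA, as % inhibition versus untreated cells.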

[5] = Liver function: plasma transaminases (ALT, AST) in C57BL/6 mice; format: in vivo, mouse
Experimental: as §1
To evaluate the impact of ISIS oligonucleotides on the hepatic function of the mice described above, plasma concentrations of transaminases were measured using an automated clinical chemistry analyzer (Olympus Clinical Analyzer). Measurements of alanine transaminase (ALT) and aspartate transaminase (AST) are expressed in IU/L. The results are presented in Tables 19 and 20 and indicate that the oligonucleotides were well tolerated.

[6] = tested on: ABCA1 mRNA; assay: ABCA1 mRNA levels in C57BL/6 mice after TTC39B inhibition; format: in vivo, mouse; details: 50 mg/kg/week, 6 weeks
Experimental: as §1
The effect of inhibition of TTC39B in mice on these proteins of reverse cholesterol transport was studied. RNA levels of ABCA1 were measured using murine primer probe set RTS1204 (forward sequence […], designated herein as SEQ ID NO: 97; reverse sequence […], designated herein as SEQ ID NO: 98; and probe sequence […], designated herein as SEQ ID NO: 99). RNA levels of apoA1 were measured using murine primer probe set RTS14737 (forward sequence […], designated herein as SEQ ID NO: 100; reverse sequence […], designated herein as SEQ ID NO: 101; and probe sequence […], designated herein as SEQ ID NO: 102). RNA levels of SRB1 were measured using murine primer probe set mSRB-1 (forward sequence […], designated herein as SEQ ID NO: 103; reverse sequence ATGCGACTTGTCAGGCTGG, designated herein as SEQ ID NO: 104; and probe sequence […], designated herein as SEQ ID NO: 105).

[7] = Plasma cholesterol and triglycerides in C57BL/6 mice (Olympus AU400e); format: in vivo, mouse
Experimental: as §1
To investigate the effect of inhibition of TTC39B on triglycerides and cholesterol levels in the plasma, samples were collected on weeks 0, 3, and 6, and total plasma cholesterol, LDL cholesterol, HDL cholesterol, and triglycerides were analyzed on an Olympus AU400e Analyzer.

[8] = Week 0 (before treatment), 50 mg/kg/week

With “TATTTCTATAGCTCATGACA (antisense eT*eA*eT*eT*eT*d[5mC]*dT*dA*dT*dA*dG*d[5mC]*dT*d[5mC]*dA*eT*eG*eA*e[5mC]*eA) [ISIS 447144]” as the sequence, how does the “Percent inhibition LDLR mRNA levels” value [1] read?
The value was 2%.

What about the “Kidney weight after treatment” value ([2]; 50 mg/kg/week, 6 weeks) of the same sequence?
Its value is 0.34 g.

What about the “Liver weight after treatment” value ([2]; 50 mg/kg/week, 6 weeks) of the same sequence?
Its value is 1.3 g.

What about the “Spleen weight after treatment” value ([2]; 50 mg/kg/week, 6 weeks) of the same sequence?
Its value is 0.08 g.

What about the body weight ([2]; Week 3, 50 mg/kg/week) of the same sequence?
The body weight was 26 g.

And the body weight ([2]; Week 6, 50 mg/kg/week)?
The body weight was 28 g.

And the body weight ([2]; week 1, 50 mg/kg/week)?
Its body weight is 25 g.

And the body weight ([2]; week 2, 50 mg/kg/week)?
Its body weight is 26 g.

And the body weight ([2]; week 4, 50 mg/kg/week)?
The body weight was 27 g.

What about the body weight ([2]; week 5, 50 mg/kg/week) of the same sequence?
The body weight was 27 g.

And the “Percent inhibition PCSK9 mRNA levels” value [3]?
Its value is 19%.

And the “percent inhibition of TTC39B mRNA” value ([4]; 25 nM)?
Its value is 37%.

And the “percent inhibition of TTC39B mRNA” value ([4]; 50 nM)?
Its value is 69%.

And the “percent inhibition of TTC39B mRNA” value ([4]; 100 nM)?
Its value is 74%.

What about the “percent inhibition of TTC39B mRNA” value ([4]; 200 nM) of the same sequence?
The value was 84%.

And the ALT levels [5, 8]?
The ALT levels was 28 IU/L.

And the AST levels [5, 8]?
Its AST levels is 67 IU/L.

What about the ALT levels ([5]; Week 3, 50 mg/kg/week) of the same sequence?
Its ALT levels is 21 IU/L.

What about the AST levels ([5]; Week 3, 50 mg/kg/week) of the same sequence?
Its AST levels is 31 IU/L.

What about the ALT levels ([5]; Week 6, 50 mg/kg/week) of the same sequence?
The ALT levels was 69 IU/L.

And the AST levels ([5]; Week 6, 50 mg/kg/week)?
Its AST levels is 113 IU/L.

And the “abcA1 mRNA levels (effect of TTC39B inhibition)” value [6]?
The value was 0.

And the “total cholesterol % increase over baseline” value ([7]; 50 mg/kg/week, 6 weeks, baseline average of 72 mg/dL)?
The value was “+37%”.

And the HDL cholesterol levels [7, 8]?
Its HDL cholesterol levels is 46 mg/dL.

And the LDL cholesterol levels [7, 8]?
The LDL cholesterol levels was 14 mg/dL.

What about the total cholesterol levels [7, 8] of the same sequence?
The total cholesterol levels was 75 mg/dL.

What about the triglyceride levels [7, 8] of the same sequence?
The triglyceride levels was 78 mg/dL.

And the HDL cholesterol levels ([7]; Week 3, 50 mg/kg/week)?
The HDL cholesterol levels was 53 mg/dL.

What about the “HDL cholesterol levels (% change over baseline)” value ([7]; Week 3, 50 mg/kg/week) of the same sequence?
The value was “+14%”.

And the LDL cholesterol levels ([7]; Week 3, 50 mg/kg/week)?
Its LDL cholesterol levels is 14 mg/dL.

And the total cholesterol levels ([7]; Week 3, 50 mg/kg/week)?
The total cholesterol levels was 81 mg/dL.

And the triglyceride levels ([7]; Week 3, 50 mg/kg/week)?
The triglyceride levels was 70 mg/dL.

And the HDL cholesterol levels ([7]; Week 6, 50 mg/kg/week)?
Its HDL cholesterol levels is 90 mg/dL.

What about the “HDL cholesterol levels (% change over baseline)” value ([7]; Week 6, 50 mg/kg/week) of the same sequence?
The value was “+88%”.

And the LDL cholesterol levels ([7]; Week 6, 50 mg/kg/week)?
Its LDL cholesterol levels is 18 mg/dL.

What about the total cholesterol levels ([7]; Week 6, 50 mg/kg/week) of the same sequence?
Its total cholesterol levels is 107 mg/dL.

What about the triglyceride levels ([7]; Week 6, 50 mg/kg/week) of the same sequence?
Its triglyceride levels is 91 mg/dL.

From patent publication US20120270929A1, “MODULATION OF TTC39 EXPRESSION TO INCREASE HDL” (ISIS Pharmaceuticals, Inc., priority 2009, published 2012)
